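These data come from cells grown in 96-well plates and exposed to compound for 48 hours at five concentrations. TGI is the concentration that stops growth completely.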
Legend:
Experiment in all cases: DTP human tumour cell line panel, 48 h
UO-31 renal = test system: UO-31 renal
T-47D breast = test system: T-47D breast
ACHN renal = test system: ACHN renal
NCI-H23 lung = test system: NCI-H23 lung
HT29 colon = test system: HT29 colon
CAKI-1 renal = test system: CAKI-1 renal
KM12 colon = test system: KM12 colon
A549 NSCLC = test system: A549 NSCLC
LOX IMVI melanoma = test system: LOX IMVI melanoma
HCT-116 colon = test system: HCT-116 colon
HL-60(TB) leukemia = test system: HL-60(TB) leukemia
NCI-H522 lung = test system: NCI-H522 lung
IGROV1 ovarian = test system: IGROV1 ovarian
COLO 205 colon = test system: COLO 205 colon
OVCAR-4 ovarian = test system: OVCAR-4 ovarian
U251 CNS = test system: U251 CNS
TK-10 renal = test system: TK-10 renal
NCI/ADR-RES ovarian = test system: NCI/ADR-RES ovarian
HCT-15 colon = test system: HCT-15 colon
MALME-3M melanoma = test system: MALME-3M melanoma
SR leukemia = test system: SR leukemia
MDA-N = test system: MDA-N
SK-MEL-28 melanoma = test system: SK-MEL-28 melanoma
OVCAR-3 ovarian = test system: OVCAR-3 ovarian
OVCAR-8 ovarian = test system: OVCAR-8 ovarian
NCI-H460 lung = test system: NCI-H460 lung
SK-MEL-5 melanoma = test system: SK-MEL-5 melanoma
HOP-92 NSCLC = test system: HOP-92 NSCLC
OVCAR-5 ovarian = test system: OVCAR-5 ovarian
BT-549 breast = test system: BT-549 breast
NCI-H226 lung = test system: NCI-H226 lung
PC-3 prostate = test system: PC-3 prostate
HCC-2998 colon = test system: HCC-2998 colon
SF-295 CNS = test system: SF-295 CNS
786-0 renal = test system: 786-0 renal
MCF7 breast = test system: MCF7 breast
SW-620 colon = test system: SW-620 colon
CCRF-CEM leukemia = test system: CCRF-CEM leukemia
M14 melanoma = test system: M14 melanoma
EKVX NSCLC = test system: EKVX NSCLC
MDA-MB-231 breast = test system: MDA-MB-231 breast
UACC-62 melanoma = test system: UACC-62 melanoma
HS 578T breast = test system: HS 578T breast
SNB-19 CNS = test system: SNB-19 CNS
A498 renal = test system: A498 renal
K-562 leukemia = test system: K-562 leukemia
SK-OV-3 ovarian = test system: SK-OV-3 ovarian
RXF 393 renal = test system: RXF 393 renal
MOLT-4 leukemia = test system: MOLT-4 leukemia
MDA-MB-435 = test system: MDA-MB-435
UACC-257 melanoma = test system: UACC-257 melanoma
RPMI-8226 leukemia = test system: RPMI-8226 leukemia
SNB-75 CNS = test system: SNB-75 CNS
SK-MEL-2 melanoma = test system: SK-MEL-2 melanoma
DU-145 prostate = test system: DU-145 prostate
SF-539 CNS = test system: SF-539 CNS
HOP-62 NSCLC = test system: HOP-62 NSCLC
SF-268 CNS = test system: SF-268 CNS
SN12C renal = test system: SN12C renal

COc1ccc(NC2=NCCO2)c2c1CCCC2 gave a TGI (UO-31 renal) of over 100 µM, a TGI (T-47D breast) of over 100 µM and a TGI (ACHN renal) of over 100 µM. For the same compound, the TGI (NCI-H23 lung) was 87.9 µM, the TGI (HT29 colon) was over 100 µM and the TGI (CAKI-1 renal) was over 100 µM. The TGI (KM12 colon) was over 100 µM, the TGI (A549 NSCLC) was over 100 µM and the TGI (LOX IMVI melanoma) was over 100 µM. It also gave a TGI (HCT-116 colon) of over 100 µM, a TGI (HL-60(TB) leukemia) of 40 µM and a TGI (NCI-H522 lung) of over 100 µM. The TGI (IGROV1 ovarian) was over 100 µM, the TGI (COLO 205 colon) was over 100 µM and the TGI (OVCAR-4 ovarian) was over 100 µM. The TGI (U251 CNS) was over 100 µM, the TGI (TK-10 renal) was over 100 µM and the TGI (NCI/ADR-RES ovarian) was over 100 µM. The TGI (HCT-15 colon) was over 100 µM, the TGI (MALME-3M melanoma) was over 100 µM and the TGI (SR leukemia) was 88.2 µM. The TGI (MDA-N) was over 100 µM, the TGI (SK-MEL-28 melanoma) was over 100 µM and the TGI (OVCAR-3 ovarian) was over 100 µM. It also gave a TGI (OVCAR-8 ovarian) of over 100 µM, a TGI (NCI-H460 lung) of over 100 µM and a TGI (SK-MEL-5 melanoma) of 33.7 µM. It also gave a TGI (HOP-92 NSCLC) of 79.5 µM, a TGI (OVCAR-5 ovarian) of over 100 µM and a TGI (BT-549 breast) of over 100 µM. For the same compound, the TGI (NCI-H226 lung) was 65.3 µM, the TGI (PC-3 prostate) was over 100 µM and the TGI (HCC-2998 colon) was over 100 µM. It also gave a TGI (SF-295 CNS) of over 100 µM, a TGI (786-0 renal) of over 100 µM and a TGI (MCF7 breast) of over 100 µM. The TGI (SW-620 colon) was over 100 µM, the TGI (CCRF-CEM leukemia) was 86 µM and the TGI (M14 melanoma) was over 100 µM. It also gave a TGI (EKVX NSCLC) of over 100 µM, a TGI (MDA-MB-231 breast) of over 100 µM and a TGI (UACC-62 melanoma) of 89.2 µM. For the same compound, the TGI (HS 578T breast) was 91.6 µM, the TGI (SNB-19 CNS) was over 100 µM and the TGI (A498 renal) was over 100 µM. For the same compound, the TGI (K-562 leukemia) was over 100 µM, the TGI (SK-OV-3 ovarian) was 84.8 µM and the TGI (RXF 393 renal) was 86.2 µM. It also gave a TGI (MOLT-4 leukemia) of 42.4 µM, a TGI (MDA-MB-435) of over 100 µM and a TGI (UACC-257 melanoma) of over 100 µM. It also gave a TGI (RPMI-8226 leukemia) of 87 µM, a TGI (SNB-75 CNS) of 93.9 µM and a TGI (SK-MEL-2 melanoma) of 42.6 µM. For the same compound, the TGI (DU-145 prostate) was over 100 µM and the TGI (SF-539 CNS) was over 100 µM.
CC1=NC(C)(C)[N+]([O-])=C1 gave a TGI (UO-31 renal) of over 10 µM, a TGI (T-47D breast) of over 10 µM and a TGI (ACHN renal) of over 10 µM. For the same compound, the TGI (NCI-H23 lung) was over 10 µM, the TGI (HT29 colon) was over 10 µM and the TGI (CAKI-1 renal) was over 10 µM. For the same compound, the TGI (KM12 colon) was over 10 µM, the TGI (A549 NSCLC) was over 10 µM and the TGI (LOX IMVI melanoma) was over 10 µM. For the same compound, the TGI (HCT-116 colon) was over 10 µM, the TGI (HL-60(TB) leukemia) was over 10 µM and the TGI (NCI-H522 lung) was over 10 µM. For the same compound, the TGI (IGROV1 ovarian) was over 10 µM, the TGI (COLO 205 colon) was over 10 µM and the TGI (U251 CNS) was over 10 µM. It also gave a TGI (TK-10 renal) of over 10 µM, a TGI (NCI/ADR-RES ovarian) of over 10 µM and a TGI (HCT-15 colon) of over 10 µM. For the same compound, the TGI (MALME-3M melanoma) was over 10 µM, the TGI (SR leukemia) was over 10 µM and the TGI (MDA-N) was over 10 µM. It also gave a TGI (SK-MEL-28 melanoma) of over 10 µM, a TGI (OVCAR-3 ovarian) of over 10 µM and a TGI (OVCAR-8 ovarian) of over 10 µM. It also gave a TGI (NCI-H460 lung) of over 10 µM, a TGI (SK-MEL-5 melanoma) of over 10 µM and a TGI (HOP-92 NSCLC) of over 10 µM. The TGI (OVCAR-5 ovarian) was over 10 µM, the TGI (BT-549 breast) was over 10 µM and the TGI (NCI-H226 lung) was over 10 µM. For the same compound, the TGI (PC-3 prostate) was over 10 µM, the TGI (HOP-62 NSCLC) was over 10 µM and the TGI (HCC-2998 colon) was over 10 µM. For the same compound, the TGI (SF-295 CNS) was over 10 µM, the TGI (786-0 renal) was over 10 µM and the TGI (SF-268 CNS) was over 10 µM. For the same compound, the TGI (MCF7 breast) was over 10 µM, the TGI (SW-620 colon) was over 10 µM and the TGI (CCRF-CEM leukemia) was over 10 µM. For the same compound, the TGI (M14 melanoma) was over 10 µM, the TGI (EKVX NSCLC) was over 10 µM and the TGI (MDA-MB-231 breast) was over 10 µM. For the same compound, the TGI (UACC-62 melanoma) was over 10 µM, the TGI (HS 578T breast) was over 10 µM and the TGI (SNB-19 CNS) was over 10 µM. It also gave a TGI (A498 renal) of over 10 µM, a TGI (K-562 leukemia) of over 10 µM and a TGI (SK-OV-3 ovarian) of over 10 µM. It also gave a TGI (RXF 393 renal) of over 10 µM, a TGI (MOLT-4 leukemia) of over 10 µM and a TGI (SN12C renal) of over 10 µM. The TGI (MDA-MB-435) was over 10 µM, the TGI (UACC-257 melanoma) was over 10 µM and the TGI (RPMI-8226 leukemia) was over 10 µM. For the same compound, the TGI (SNB-75 CNS) was 4.85 µM, the TGI (SK-MEL-2 melanoma) was over 10 µM and the TGI (DU-145 prostate) was over 10 µM. For the same compound, the TGI (SF-539 CNS) was over 10 µM.

Reference: PubChem BioAssay (NCI)
